# Reference: patent US11214594B2, “Antimicrobial peptide having synergistic antibacterial effect with antibiotics on multidrug resistant bacteria, and use thereof” (priority 2016, dated 2022)
# Where a SMILES comes first, the peptide text is derived from it.
# Columns and labels:
# E. coli [1] = assay: microbe, parasite or virus in culture; assay type: cell-based, Escherichia coli; conditions: 16 h
# Procedure, shortened: (§1)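 Each strain is brought to 2×10^6 CFU in nutrient-sufficient Mueller-Hinton medium and dispensed into wells. Peptide solutions, stepwise diluted 2:1 in the same medium, are then added. The minimal concentration preventing growth gives the MIC.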
# MDREC 1229 [2] = assay: microbe, parasite or virus in culture; assay type: cell-based, Escherichia coli
# Procedure, shortened: as §1
# MDRAB 12036 = assay type: cell-based, Acinetobacter baumannii
# Procedure, shortened: as §1
# MDRST 8007 = assay: Minimal inhibitory concentration (MIC), single agent; assay type: cell-based, Salmonella typhimurium; conditions: agent alone
# Procedure, shortened: as §1
# B. subtilis = assay: microbe, parasite or virus in culture; assay type: cell-based, Bacillus subtilis
# Procedure, shortened: as §1
# S. aureus = assay: microbe, parasite or virus in culture; assay type: cell-based, Staphylococcus aureus
# Procedure, shortened: as §1
# E. coli [3] = assay: MIC of antibiotic during combined treatment with antimicrobial peptide; assay type: cell-based, Escherichia coli; conditions: for Antibiotic MIC, Erythromycin / Antibiotic MIC, Linezolid / Antibiotic MIC, Vancomycin: E. coli
# Procedure, shortened: (§2)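 MIC values for mixed peptide plus antibiotic solutions were measured in MH medium.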
# MDREC 1229 [4] = assay: as above; assay type: cell-based, Escherichia coli
# Procedure, shortened: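 Antibiotic MIC came from antibiotic dilutions added to bacteria (2×10^6 CFU/ml, MH medium) already combined with peptide serially diluted 2:1 from its own MIC. Swapping the roles of the two agents gave the peptide MIC.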
# A. baumannii = assay: as above; assay type: cell-based, Acinetobacter baumannii
# Procedure, shortened: as §2
# [5] = peptide treatment concentration 1 μg/ml
# [6] = peptide treatment concentration 2 μg/ml
# [7] = peptide treatment concentration 4 μg/ml
# [8] = peptide treatment concentration 6 μg/ml
# [9] = peptide treatment concentration 8 μg/ml
# [10] = peptide treatment concentration 16 μg/ml
# [11] = peptide treatment concentration 32 μg/ml
# [12] = peptide treatment concentration 64 μg/ml
# [13] = A. baumannii, combined with peptide at 1 μg/ml
smiles,measurement,setting,value
"CC[C@H](C)[C@H](NC(=O)[C@H](CCCCN)NC(=O)[C@H](Cc1c[nH]c2ccccc12)NC(=O)[C@@H](N)CCCNC(=N)N)C(=O)N[C@@H](Cc1ccccc1)C(=O)N[C@@H](CCCCN)C(=O)N[C@@H](CCCCN)C(=O)N[C@H](C(=O)N1CCC[C@H]1C(=O)N[C@@H](CCCCN)C(=O)N[C@@H](CC(C)C)C(=O)N[C@@H](CC(C)C)C(=O)N[C@@H](Cc1c[nH]cn1)C(=O)N[C@@H](CCC(=O)O)C(=O)N[C@@H](C)C(=O)N[C@@H](CCCCN)C(=O)N[C@@H](CCCCN)C(=O)N[C@@H](Cc1c[nH]c2ccccc12)C(N)=O)[C@@H](C)CC [PapMA-13, RWK IFK KIP KLL HEA KKW-NH2] (H-RWKIFKKIPKLLHEAKKW-NH2; N-terminus assumed)",Minimal inhibitory concentration MIC,E. coli [1],16 µg/mL
same,Minimal inhibitory concentration MIC,MDREC 1229 [2],16 µg/mL
same,"Peptide MIC, peptide alone",MDREC 1229 [2],16 µg/mL
same,Minimal inhibitory concentration MIC,MDRAB 12036,16 µg/mL
same,Minimal inhibitory concentration MIC,MDRST 8007,16 µg/mL
same,Minimal inhibitory concentration MIC,B. subtilis,>128 µg/mL
same,Minimal inhibitory concentration MIC,S. aureus,>128 µg/mL
same,Synergistic effect of antibacterial activity with existing antibiotics compared with PapMA-1,E. coli [3]; E. coli and MDREC1229,higher level than the PapMA-1 peptide
same,"Antibiotic MIC, Erythromycin",E. coli [3]; erythromycin combined with peptide at 1 μg/ml,64 µg/mL
same,"Antibiotic MIC, Erythromycin",E. coli [3]; erythromycin combined with peptide at 2 μg/ml,16 µg/mL
same,"Antibiotic MIC, Erythromycin",E. coli [3]; erythromycin combined with peptide at 4 μg/ml,2 µg/mL
same,"Antibiotic MIC, Erythromycin",E. coli [3]; erythromycin combined with peptide at 6 μg/ml,1 µg/mL
same,"Antibiotic MIC, Erythromycin",E. coli [3]; erythromycin combined with peptide at 8 μg/ml,0.25 µg/mL
same,"Antibiotic MIC, Erythromycin",E. coli [3]; erythromycin combined with peptide at 16 μg/ml,0 µg/mL
same,"Antibiotic MIC, Erythromycin",E. coli [3]; erythromycin combined with peptide at 32 μg/ml,0 µg/mL
same,"Antibiotic MIC, Erythromycin",E. coli [3]; erythromycin combined with peptide at 64 μg/ml,0 µg/mL
same,"Antibiotic MIC, Linezolid",E. coli [3]; linezolid combined with peptide at 1 μg/ml,>128 µg/mL
same,"Antibiotic MIC, Linezolid",E. coli [3]; linezolid combined with peptide at 2 μg/ml,64 µg/mL
same,"Antibiotic MIC, Linezolid",E. coli [3]; linezolid combined with peptide at 4 μg/ml,8 µg/mL
same,"Antibiotic MIC, Linezolid",E. coli [3]; linezolid combined with peptide at 6 μg/ml,4 µg/mL
same,"Antibiotic MIC, Linezolid",E. coli [3]; linezolid combined with peptide at 8 μg/ml,1 µg/mL
same,"Antibiotic MIC, Linezolid",E. coli [3]; linezolid combined with peptide at 16 μg/ml,0 µg/mL
same,"Antibiotic MIC, Linezolid",E. coli [3]; linezolid combined with peptide at 32 μg/ml,0 µg/mL
same,"Antibiotic MIC, Linezolid",E. coli [3]; linezolid combined with peptide at 64 μg/ml,0 µg/mL
same,"Antibiotic MIC, Vancomycin",E. coli [3]; vancomycin combined with peptide at 1 μg/ml,>128 µg/mL
same,"Antibiotic MIC, Vancomycin",E. coli [3]; vancomycin combined with peptide at 2 μg/ml,64 µg/mL
same,"Antibiotic MIC, Vancomycin",E. coli [3]; vancomycin combined with peptide at 4 μg/ml,16 µg/mL
same,"Antibiotic MIC, Vancomycin",E. coli [3]; vancomycin combined with peptide at 6 μg/ml,8 µg/mL
same,"Antibiotic MIC, Vancomycin",E. coli [3]; vancomycin combined with peptide at 8 μg/ml,2 µg/mL
same,"Antibiotic MIC, Vancomycin",E. coli [3]; vancomycin combined with peptide at 16 μg/ml,0 µg/mL
same,"Antibiotic MIC, Vancomycin",E. coli [3]; vancomycin combined with peptide at 32 μg/ml,0 µg/mL
same,"Antibiotic MIC, Vancomycin",E. coli [3]; vancomycin combined with peptide at 64 μg/ml,0 µg/mL
same,"Antibiotic MIC, Erythromycin",MDREC 1229 [4]; [5],>128 µg/mL
same,"Antibiotic MIC, Linezolid",MDREC 1229 [4]; [5],>128 µg/mL
same,"Antibiotic MIC, Vancomycin",MDREC 1229 [4]; [5],>128 µg/mL
same,"Antibiotic MIC, Erythromycin",MDREC 1229 [4]; [6],32 µg/mL
same,"Antibiotic MIC, Linezolid",MDREC 1229 [4]; [6],128 µg/mL
same,"Antibiotic MIC, Vancomycin",MDREC 1229 [4]; [6],>128 µg/mL
same,"Antibiotic MIC, Erythromycin",MDREC 1229 [4]; [7],8 µg/mL
same,"Antibiotic MIC, Linezolid",MDREC 1229 [4]; [7],64 µg/mL
same,"Antibiotic MIC, Vancomycin",MDREC 1229 [4]; [7],64 µg/mL
same,"Antibiotic MIC, Erythromycin",MDREC 1229 [4]; [8],4 µg/mL
same,"Antibiotic MIC, Linezolid",MDREC 1229 [4]; [8],8 µg/mL
same,"Antibiotic MIC, Vancomycin",MDREC 1229 [4]; [8],16 µg/mL
same,"Antibiotic MIC, Erythromycin",MDREC 1229 [4]; [9],0.5 µg/mL
same,"Antibiotic MIC, Linezolid",MDREC 1229 [4]; [9],4 µg/mL
same,"Antibiotic MIC, Vancomycin",MDREC 1229 [4]; [9],4 µg/mL
same,"Antibiotic MIC, Erythromycin",MDREC 1229 [4]; [10],0 µg/mL
same,"Antibiotic MIC, Linezolid",MDREC 1229 [4]; [10],0 µg/mL
same,"Antibiotic MIC, Vancomycin",MDREC 1229 [4]; [10],0 µg/mL
same,"Antibiotic MIC, Erythromycin",MDREC 1229 [4]; [11],0 µg/mL
same,"Antibiotic MIC, Linezolid",MDREC 1229 [4]; [11],0 µg/mL
same,"Antibiotic MIC, Vancomycin",MDREC 1229 [4]; [11],0 µg/mL
same,"Antibiotic MIC, Erythromycin",MDREC 1229 [4]; [12],0 µg/mL
same,"Antibiotic MIC, Linezolid",MDREC 1229 [4]; [12],0 µg/mL
same,"Antibiotic MIC, Vancomycin",MDREC 1229 [4]; [12],0 µg/mL
same,Synergistic effect of antibacterial activity with existing antibiotics compared with PapMA-1,A. baumannii; A. baumannii and MDRAB 12035,higher level than the PapMA-1 peptide
same,"Antibiotic MIC, Erythromycin",A. baumannii; [13],16 µg/mL
same,"Antibiotic MIC, Linezolid",A. baumannii; [13],64 µg/mL
same,"Antibiotic MIC, Vancomycin",A. baumannii; [13],128 µg/mL
